Experiments:
[1] = Plasma pharmacokinetics of phenolic metabolites after one 450 mg capsule of the supplement (UHPLC-ESI-MS/MS); format: in vivo, human; details: for Cmax / Tmax / Tpres (time of presence of metabolites in circulation): n = 10, mean ± SEM; for Tpres (time of presence of metabolites in circulation): interval between first and last appearance; for AUC0-24: supplemented volunteers (n = 10), 450 mg capsule, mean ± SEM
Protocol: (§1) This study was designed as a 3-week randomized, double-blind, cross-over clinical trial. Eligible participants were randomized using simple block randomization of 1:1. Once enrolled, subjects received either one 450 mg capsule of the test supplement or one 450 mg capsule of placebo on the first day of the study (Phase I: D1). After three days of sampling, volunteers started a wash-out period of 1 week and were then enrolled for the second test Phase with ingestion of the opposite supplement (Phase II: D1) (Figure 1). The placebo product was 100% maltodextrin, which was (poly)phenol-free.
On the day of the test (D1), volunteers visited the Research Center after an overnight fast. Blood was collected at T0 to determine baseline levels of plasma phenolic metabolites. Then, volunteers were invited to take the 450 mg capsule of the supplement or the placebo with 250 mL of still water (Figure 2). Additional blood samples were then collected at 1 h (D1, T1), 2 h (D1, T2), 3 h (D1, T3), 4 h (D1, T4), 5 h (D1, T5), 6 h (D1, T6), 8 h (D1, T8), 10 h (D1, T10) and 24 h (D2, T24) after capsule intake. Blood was taken from the basilica vein and centrifuged at 3000 rpm for 10 min at 4 °C. Plasma was immediately extracted and frozen at −80 °C for further analysis.
Plasma samples were then extracted using a solid phase extraction (SPE) method, as previously reported by Castello and colleagues. Briefly, 350 µL of plasma samples was diluted (1:1) with phosphoric acid 4% (v/v). After plate activation, 600 µL of the diluted plasma samples was loaded on a 96 well µ-SPE HLB (Oasis® HLB µElution Plate 30 µm, Waters, Milford, Massachusetts, MA, USA). Samples were washed with 200 µL of water and 200 µL of 0.2% (v/v) acetic acid. Finally, samples were eluted with 60 µL of methanol for UHPLC-ESI-MS/MS analysis.
(§2) Plasma and urine samples were analyzed by a UHPLC DIONEX Ultimate 3000 equipped with a triple quadrupole TSQ Vantage (Thermo Fisher Scientific Inc) fitted with a heated ESI (H-ESI) (Thermo Fisher Scientific Inc) probe, as previously reported. Separations were carried out by means of a Kinetex EVO C18 (100 × 2.1 mm) column, 2.6 µm particle size (Phenomenex, Torrance, CA, USA), installed with a pre-column (Phenomenex). Mobile phase A was 0.2% formic acid in water, and mobile phase B was acetonitrile containing 0.2% formic acid. The gradient started with 5% B, and isocratic conditions were maintained for 0.5 min, reaching 95% B after 6.5 min, followed by 1 min at 95%. The starting gradient was then immediately re-established and maintained for 5 min to re-equilibrate the column. The flow rate was 0.4 mL/min, the injection volume was 5 µL and the column temperature was set at 40 °C.
(§3) The applied MS method consisted of the selective determination of each target precursor ion by the acquisition of characteristic product ion in selective reaction monitoring (SRM) mode (Supplemental Table S2). For all the analyses, the spray voltage was set at 3 kV, the vaporizer temperature at 300 °C and the capillary temperature operated at 270 °C. The sheath gas flow was 50 units, and auxiliary gas pressure was set to 10 units. Ultra-high purity argon gas was used for collision-induced dissociation (CID). The S-lens values were defined for each compound based on infusion parameter optimization. Conversely, for those compounds not available for infusion, the S-lens values were set using the values obtained for the chemically closest available standards. Quantification was performed with calibration curves of standards when available or using the most structurally similar compound. Data processing was performed using Xcalibur software (Thermo Scientific Inc., San Jose, CA, USA).
All data were expressed as mean values ± standard deviation (SD) and mean values ± standard error to the mean (SEM) for metabolites in blood and urine samples. […]

[2] = Urinary excretion of phenolic metabolites over 48 h after one 450 mg capsule of the supplement (UHPLC-ESI-MS/MS); format: in vivo, human; details: for Urinary excretion 0–3 (h) / Urinary excretion 3–6 (h) / Urinary excretion 6–10 (h) / Urinary excretion 10–14 (h) / Urinary excretion 14–24 (h) / Urinary excretion 24–32 (h) / Urinary excretion Total (0–48 h) / Urinary excretion 0 (h) / Urinary excretion 32–48 (h): urine, n = 10, mean ± SEM; for Urinary excretion 0 (h): baseline (day before)
Protocol: as §1
Urine samples were collected the day before (baseline) and during the 48 h period following the supplementation (T0-T3, T3-T6, T6-T10, T10-T14, T14-T24, T24-T32 and T32-T48) (Figure 2). Urine volumes at each collection period were registered, and samples were aliquoted and stored at −80 °C until further processing.
Then, urine samples were prepared as previously reported by Brindani and colleagues. Briefly, urine samples were defrosted, vortexed, diluted in 0.1% formic acid in water (1:4, v/v) and centrifuged at 12,000 rpm for 5 min. Finally, urine samples were filtered (0.45 µm nylon filter) prior to UHPLC-ESI-MS/MS analysis.
as §2, §3
All data were expressed as mean values ± standard deviation (SD) and mean values ± standard error to the mean (SEM) for metabolites in blood and urine samples. PKSolver add-on program in Microsoft Excel was used to determine pharmacokinetic parameters of blood phenolic metabolites, including time to reach the maximum plasma concentration (Tmax, h), maximum plasma concentration (Cmax, nmol/L), area under the curve (AUC0-24, nmol/L·h), and time of presence of metabolites in circulation (Tpres, h). Tpres was calculated by taking the time interval between the first appearance and the last appearance of the considered metabolite. Coefficient of variation (CV) was evaluated for each metabolite and multivariate principal component analysis (PCA) was applied to explore the inter-individual variation in the urinary metabolites among the participants. […]

Cmax [1] [nM] | Tmax [1] [h] | Tpres (time of presence of metabolites in circulation) [1] [h] | AUC0-24 [1] [µM·h] | Time of maximum (peak) urinary excretion ([2]; collection interval post-consumption) [h] | Urinary excretion 0–3 (h) [2] [µg] | Urinary excretion 3–6 (h) [2] [µg] | Urinary excretion 6–10 (h) [2] [µg] | Urinary excretion 10–14 (h) [2] [µg] | Urinary excretion 14–24 (h) [2] [µg] | Urinary excretion 24–32 (h) [2] [µg] | Urinary excretion Total (0–48 h) [2] [µg] | Urinary excretion 0 (h) [2] [µg] | Urinary excretion 32–48 (h) [2] [µg] | SMILES
24.9 ± 5.63 | 1.45 ± 0.32 | 8.45 ± 2.19 | 0.05092 ± 0.00585 | 3 to 6 | 53.75 ± 15.51 | 69.04 ± 13.20 | 38.02 ± 8.17 | 10.90 ± 3.90 | 10.23 ± 3.71 | 0.75 ± 0.75 | 182.69 ± 19.99 | – | – | O=C(O)C1OC(Oc2cc(CCO)ccc2O)C(O)C(O)C1O (centres unmarked) [compound 33]
443 ± 99.3 | 7.13 ± 0.77 | 7.50 ± 2.38 | 1.55429 ± 0.64433 | – | 85.67 ± 85.67 | – | – | 287.94 ± 287.94 | 262.06 ± 138.26 | – | 1408.57 ± 544.97 | 96.20 ± 96.20 | 676.70 ± 383.40 | O=C(O)CCc1cccc(O)c1.O=C(O)CCc1cccc(O)c1 [compound 40]
18.2 ± 11.3 | 4.56 ± 1.13 | 9.06 ± 2.56 | 0.02741 ± 0.01121 | – | 101.08 ± 52.47 | 103.59 ± 54.34 | 41.08 ± 16.51 | 56.67 ± 24.78 | 389.70 ± 95.00 | 208.69 ± 73.47 | 1217.76 ± 256.95 | 27.49 ± 27.49 | 289.45 ± 118.16 | O=C(O)CCc1ccc(O)c(OS(=O)(=O)O)c1 [compound 41]
